{"source": "patent EP0414755B1", "about": "“INTERACTION SYSTEM COMPRISING A SURFACTANT-STABILIZED DISPERSE AQUEOUS PHASE CONTAINING AN ANTIBODY OR ANTIBODY FRAGMENT” (IGEN, INC., priority 1988, dated 1989)", "key": {"[1]": {"test_system": "48-G7 antibody (monoclonal IgG made against a p-nitrophenylphosphonate hapten)", "experiment": "48-G7 antibody-catalyzed hydrolysis of p-nitrophenylcarbonate in AOT/iso-octane microemulsion, inhibition by transition state analog", "type": "biochemical", "details": "24 µM final concentration of inhibitor; 50 mM AOT in iso-octane, 888 µM p-NPC; uninhibited rate 0.00028 Abs/minute", "method": "The rate of 48-G7 antibody-catalyzed hydrolysis of p-NPC was determined in a 50 mM solution of sodium bi-(2-ethylhexyl) sulfosuccinate (\"AOT\") in iso-octane containing 888 µM of p-NPC. First 20 ml of the iso-octane solution containing 0.445 g of AOT (M.W.=445g) and 3.5 mg of p-NPC (M.W.-197g) were prepared. To this solution […] (pH 8.5) and 10 µl of the 48-G7 antibody solution were added. A microemulsion of disperse aqueous phase in the iso-octane was obtained by mixing. The hydrolysis of p-NPC and the production of p-nitrophenol was monitored at 400 nm, although an accurate conversion between 400 nm absorbance and moles of p-nitrophenol formed was not possible because the pH inside the microemulsified aqueous phase particles could not be accurately determined.\nUpon addition of the 48-G7 antibody solution, the biphasic system became turbid as the antibody-containing, microemulsified aqueous phase particles formed. Subsequently, absorbance at 400 nm began to increase as p-nitrophenol was formed. The rate of 400 nm absorbance increase was 0.00028 Abs/minute.\nWhen this experiment was repeated with the 10 µl of tris buffer containing 2.4 mM p-nitrophosphonate hapten (24 µM final concentration), the initial 400 nm absorbance was similar to the non-inhibited antibody solution. […] Instead, the 400 nm absorbance continued to decrease. […]"}, "[2]": {"test_system": "48-G7 antibody (monoclonal IgG made against a p-nitrophenylphosphonate hapten)", "experiment": "48-G7 antibody-catalyzed hydrolysis of p-nitrophenylcarbonate in aqueous tris buffer, inhibition by transition state analog", "type": "biochemical", "details": "24 µM inhibitor, 90 µg/ml 48-G7, 10 mM tris buffer pH 8.5", "method": "A solution of the 48-G7 antibody was purified from ascites fluid by Protein A chromatography. Following dialysis of the IgG fractions which were obtained into 10 mM tris buffer, 4.0 ml of a 3.0 mg/ml solution of this protein was lyophilyzed to dryness. The protein powder was then resuspended in 1.5 ml of 10 mM tris buffer (pH 8.5). When 10 µl of this antibody solution was added to one milliliter of buffer, a protein concentration of 0.090 mg/ml resulted (as determined from 280 nm and 260 nm absorbances). Thus, the stock antibody solution was 9.0 mg/ml.\nThe rate of antibody catalyzed hydrolysis of p-nitrophenylcarbonate was determined by adding 15 µl of a 50 mM p-nitrophenylcarbonate (p-NPC) solution dissolved in tetrahydrofuran to 3.0 ml of 10 mM tris buffer (pH 8.5). After this solution was mixed to homogeneity, 1.0 ml was transferred into a reference cuvette and 1.0 ml was transferred into a sample cuvette. An assay was initiated by addition of 10 µl of the 48-G7 antibody solution (0.090 mg). The progress of the reaction was monitored with a Hitachi Model 3200 double beam spectrophotometer (to screen out the rate of solvent-induced background hydrolysis) at 400 nm. The extinction coefficient for the product, p-nitrophenol, was 18,300 M^-1 cm^-1 at pH 8.5."}}, "data": [{"smiles": "O=[N+]([O-])c1ccc(P(=O)(O)O)cc1", "note": "[p-nitrophenylphosphonate]", "values": [{"measurement": "400 nm absorbance (p-nitrophenylcarbonate hydrolysis) in the presence of inhibitor", "setting": "[1]", "value": "did not rise"}, {"measurement": "rate of hydrolysis of p-NPC in the presence of inhibitor", "setting": "[2]; uninhibited rate 0.49 µmolar p-NPC per minute", "value": 0.109, "unit": "µM/min"}, {"measurement": "rate of hydrolysis of p-NPC in the presence of inhibitor (400 nm absorbance)", "setting": "[2]; uninhibited rate 0.0089 Abs/min", "value": 0.002, "unit": "Abs units/minute"}]}]}
